The values below come from patent publication US20120121591A1 (priority 2009, published 2012).

The test system of one assay is IFN-g secretion from T cells in human whole blood. Type of assay: cell-based. The following applies: read-out: WB (IFNg) IC5- (nM, Avg).
Take `CC[C@H](C)[C@@H]1NC(=O)[C@@H](NC(=O)[C@H](CO)NC(=O)[C@@H](N)CCCNC(=N)N)CSSC[C@@H](C(=O)O)NC(=O)[C@H]([C@@H](C)O)NC(=O)CNC(=O)[C@@H]2CSSC[C@@H]3NC(=O)[C@H](CCC(N)=O)NC(=O)[C@H](Cc4ccccc4)NC(=O)[C@H](C)NC(=O)[C@H]([C@@H](C)O)NC(=O)[C@H](CSSC[C@H](NC(=O)[C@H](Cc4ccccc4)NC(=O)[C@H](CO)NC(=O)[C@H](CC(C)C)NC(=O)[C@H](CCCNC(=N)N)NC(=O)[C@H](Cc4ccc(O)cc4)NC(=O)[C@H](CCCCN)NC(=O)[C@H](CCSC)NC(=O)[C@H](CO)NC(=O)[C@H](CCC(=O)O)NC(=O)[C@H](CCCCN)NC3=O)C(=O)N[C@@H](CCCNC(=N)N)C(=O)N[C@@H](CCCCN)C(=O)N[C@@H]([C@@H](C)O)C(=O)N2)NC(=O)[C@H](CCCNC(=N)N)NC(=O)[C@H](CO)NC(=O)[C@H](CCCCN)NC(=O)[C@@H]2CCCN2C(=O)[C@H]([C@@H](C)CC)NC(=O)[C@H]([C@@H](C)O)NC(=O)[C@H](CC(=O)O)NC1=O` [[Glu19]ShK]: the IC50 came out at 0.215 nM.

Take `CC[C@H](C)[C@@H]1NC(=O)[C@@H](NC(=O)[C@H](CO)NC(=O)[C@@H](N)CCCNC(=N)N)CSSC[C@@H](C(=O)O)NC(=O)[C@H]([C@@H](C)O)NC(=O)CNC(=O)[C@@H]2CSSC[C@@H]3NC(=O)[C@H](CCC(N)=O)NC(=O)[C@H](Cc4ccccc4)NC(=O)[C@H](C)NC(=O)[C@H]([C@@H](C)O)NC(=O)[C@H](CSSC[C@H](NC(=O)[C@H](Cc4ccccc4)NC(=O)[C@H](CO)NC(=O)[C@H](CC(C)C)NC(=O)[C@H](CCCNC(=N)N)NC(=O)[C@H](Cc4ccc(O)cc4)NC(=O)[C@H](CCC(=O)O)NC(=O)[C@H](CCSC)NC(=O)[C@H](CO)NC(=O)[C@H](Cc4c[nH]cn4)NC(=O)[C@H](CCCCN)NC3=O)C(=O)N[C@@H](CCCNC(=N)N)C(=O)N[C@@H](CCCCN)C(=O)N[C@@H]([C@@H](C)O)C(=O)N2)NC(=O)[C@H](CCCNC(=N)N)NC(=O)[C@H](CO)NC(=O)[C@H](CCCCN)NC(=O)[C@@H]2CCCN2C(=O)[C@H]([C@@H](C)CC)NC(=O)[C@H]([C@@H](C)O)NC(=O)[C@H](CC(=O)O)NC1=O` [[Glu22]ShK]: the IC50 was 100 nM.

For `CC[C@H](C)[C@@H]1NC(=O)[C@@H](NC(=O)[C@H](CO)NC(=O)[C@@H](N)CCCNC(=N)N)CSSC[C@@H](C(=O)O)NC(=O)[C@H]([C@@H](C)O)NC(=O)CNC(=O)[C@@H]2CSSC[C@@H]3NC(=O)[C@H](CCC(N)=O)NC(=O)[C@H](Cc4ccccc4)NC(=O)[C@H](C)NC(=O)[C@H]([C@@H](C)O)NC(=O)[C@H](CSSC[C@H](NC(=O)[C@H](Cc4ccccc4)NC(=O)[C@H](CO)NC(=O)[C@H](CC(C)C)NC(=O)[C@H](CCCNC(=N)N)NC(=O)[C@H](CCC(=O)O)NC(=O)[C@H](CCCCN)NC(=O)[C@H](CCSC)NC(=O)[C@H](CO)NC(=O)[C@H](Cc4c[nH]cn4)NC(=O)[C@H](CCCCN)NC3=O)C(=O)N[C@@H](CCCNC(=N)N)C(=O)N[C@@H](CCCCN)C(=O)N[C@@H]([C@@H](C)O)C(=O)N2)NC(=O)[C@H](CCCNC(=N)N)NC(=O)[C@H](CO)NC(=O)[C@H](CCCCN)NC(=O)[C@@H]2CCCN2C(=O)[C@H]([C@@H](C)CC)NC(=O)[C@H]([C@@H](C)O)NC(=O)[C@H](CC(=O)O)NC1=O` [[Glu23]ShK], the IC50 came to 100 nM.

With `CC[C@H](C)[C@@H]1NC(=O)[C@@H](NC(=O)[C@H](CO)NC(=O)[C@@H](N)CCCNC(=N)N)CSSC[C@@H](C(=O)O)NC(=O)[C@H]([C@@H](C)O)NC(=O)CNC(=O)[C@@H]2CSSC[C@@H]3NC(=O)[C@H](CCC(N)=O)NC(=O)[C@H](Cc4ccccc4)NC(=O)[C@H](C)NC(=O)[C@H]([C@@H](C)O)NC(=O)[C@H](CSSC[C@H](NC(=O)[C@H](Cc4ccccc4)NC(=O)[C@H](CO)NC(=O)[C@H](CC(C)C)NC(=O)[C@H](CCC(=O)O)NC(=O)[C@H](Cc4ccc(O)cc4)NC(=O)[C@H](CCCCN)NC(=O)[C@H](CCSC)NC(=O)[C@H](CO)NC(=O)[C@H](Cc4c[nH]cn4)NC(=O)[C@H](CCCCN)NC3=O)C(=O)N[C@@H](CCCNC(=N)N)C(=O)N[C@@H](CCCCN)C(=O)N[C@@H]([C@@H](C)O)C(=O)N2)NC(=O)[C@H](CCCNC(=N)N)NC(=O)[C@H](CO)NC(=O)[C@H](CCCCN)NC(=O)[C@@H]2CCCN2C(=O)[C@H]([C@@H](C)CC)NC(=O)[C@H]([C@@H](C)O)NC(=O)[C@H](CC(=O)O)NC1=O` [[Glu24]ShK], the IC50 came out at 4.07 nM.

The assay is the same for the next values; noted with them: read-out: WB (IFNg) IC50 (nM, Avg).
For the compound `CC[C@H](C)[C@@H]1NC(=O)[C@@H](NC(=O)[C@H](CO)NC(=O)[C@@H](N)CCCNC(=N)N)CSSC[C@@H](C(=O)O)NC(=O)[C@H]([C@@H](C)O)NC(=O)[C@H](Cc2cccc3ccccc23)NC(=O)[C@@H]2CSSC[C@@H]3NC(=O)[C@H](CCC(N)=O)NC(=O)[C@H](Cc4ccccc4)NC(=O)[C@H](C)NC(=O)[C@H]([C@@H](C)O)NC(=O)[C@H](CSSC[C@H](NC(=O)[C@H](Cc4ccccc4)NC(=O)[C@H](CO)NC(=O)[C@H](CC(C)C)NC(=O)[C@H](CCCNC(=N)N)NC(=O)[C@H](Cc4ccc(O)cc4)NC(=O)[C@H](CCCCN)NC(=O)[C@H](CCSC)NC(=O)[C@H](CO)NC(=O)[C@H](Cc4c[nH]cn4)NC(=O)[C@H](CCCCN)NC3=O)C(=O)N[C@@H](CCCNC(=N)N)C(=O)N[C@@H](CCCCN)C(=O)N[C@@H]([C@@H](C)O)C(=O)N2)NC(=O)[C@H](CCCNC(=N)N)NC(=O)[C@H](CO)NC(=O)[C@H](CCCCN)NC(=O)[C@@H]2CCCN2C(=O)[C@H]([C@@H](C)CC)NC(=O)[C@H]([C@@H](C)O)NC(=O)[C@H](CC(=O)O)NC1=O` [[1-Nal33]ShK], the IC50 is 1.43 nM.

Regarding `CC[C@H](C)[C@@H]1NC(=O)[C@@H](NC(=O)[C@H](CO)NC(=O)[C@@H](N)CCCNC(=N)N)CSSC[C@@H](C(=O)O)NC(=O)[C@H]([C@@H](C)O)NC(=O)CNC(=O)[C@@H]2CSSC[C@@H]3NC(=O)[C@H](CCC(N)=O)NC(=O)[C@H](Cc4ccccc4)NC(=O)[C@H](C)NC(=O)[C@H]([C@@H](C)O)NC(=O)[C@H](CSSC[C@H](NC(=O)[C@H](Cc4ccccc4)NC(=O)[C@H](CO)NC(=O)[C@H](CC(C)C)NC(=O)[C@H](CCCNC(=N)N)NC(=O)[C@H](Cc4ccc(O)cc4)NC(=O)[C@H](CCCCN)NC(=O)[C@H](CCSC)NC(=O)[C@H](CO)NC(=O)[C@H](Cc4c[nH]cn4)NC(=O)[C@H](CCCCN)NC3=O)C(=O)N[C@@H](CCCNC(=N)N)C(=O)N[C@@H](CCCCN)C(=O)N[C@@H]([C@@H](C)O)C(=O)N2)NC(=O)[C@H](CCCNC(=N)N)NC(=O)[C@H](CO)NC(=O)[C@H](CCCCN)NC(=O)[C@H](CCCCN)NC(=O)[C@H]([C@@H](C)CC)NC(=O)[C@H]([C@@H](C)O)NC(=O)[C@H](CC(=O)O)NC1=O` [[Lys8]ShK], the IC50 was determined as 0.974 nM.

On to `CC[C@H](C)[C@@H]1NC(=O)[C@@H](NC(=O)[C@H](CO)NC(=O)[C@@H](N)CCCNC(=N)N)CSSC[C@@H](C(=O)O)NC(=O)[C@H]([C@@H](C)O)NC(=O)[C@H](CCCCN)NC(=O)[C@@H]2CSSC[C@@H]3NC(=O)[C@H](CCC(N)=O)NC(=O)[C@H](Cc4ccccc4)NC(=O)[C@H](C)NC(=O)[C@H]([C@@H](C)O)NC(=O)[C@H](CSSC[C@H](NC(=O)[C@H](Cc4ccccc4)NC(=O)[C@H](CO)NC(=O)[C@H](CC(C)C)NC(=O)[C@H](CCCNC(=N)N)NC(=O)[C@H](Cc4ccc(O)cc4)NC(=O)[C@H](CCCCN)NC(=O)[C@H](CCSC)NC(=O)[C@H](CO)NC(=O)[C@H](Cc4c[nH]cn4)NC(=O)[C@H](CCCCN)NC3=O)C(=O)N[C@@H](CCCNC(=N)N)C(=O)N[C@@H](CCCCN)C(=O)N[C@@H]([C@@H](C)O)C(=O)N2)NC(=O)[C@H](CCCNC(=N)N)NC(=O)[C@H](CO)NC(=O)[C@H](CCCCN)NC(=O)[C@@H]2CCCN2C(=O)[C@H]([C@@H](C)CC)NC(=O)[C@H]([C@@H](C)O)NC(=O)[C@H](CC(=O)O)NC1=O` [[Lys33]ShK], for which the IC50 was 0.317 nM.

Consider “[1-Nal14]ShK (RSCIDTIPKSRCTXFQCKHSMKYRLSFCRKTCGTC; non-natural residues)”, for which the IC50 was 0.11 nM.

A further assay deals with IL-2 secretion from T cells in human whole blood. It counts as cell-based. The following applies: read-out: WB (IL-2) IC50 (nM, Avg).
As to `CC[C@H](C)[C@@H]1NC(=O)[C@@H](NC(=O)[C@H](CO)NC(=O)[C@@H](N)CCCNC(=N)N)CSSC[C@@H](C(=O)O)NC(=O)[C@H]([C@@H](C)O)NC(=O)CNC(=O)[C@@H]2CSSC[C@@H]3NC(=O)[C@H](CCC(N)=O)NC(=O)[C@H](Cc4ccccc4)NC(=O)[C@H](C)NC(=O)[C@H]([C@@H](C)O)NC(=O)[C@H](CSSC[C@H](NC(=O)[C@H](Cc4ccccc4)NC(=O)[C@H](CO)NC(=O)[C@H](CC(C)C)NC(=O)[C@H](CCCNC(=N)N)NC(=O)[C@H](Cc4ccc(O)cc4)NC(=O)[C@H](CCCCN)NC(=O)[C@H](CCSC)NC(=O)[C@H](CO)NC(=O)[C@H](Cc4c[nH]cn4)NC(=O)[C@H](CCCCN)NC3=O)C(=O)N[C@@H](CCCNC(=N)N)C(=O)N[C@@H](CCCCN)C(=O)N[C@@H]([C@@H](C)O)C(=O)N2)NC(=O)[C@H](CCCNC(=N)N)NC(=O)[C@H](CO)NC(=O)[C@H](Cc2cccc3ccccc23)NC(=O)[C@@H]2CCCN2C(=O)[C@H]([C@@H](C)CC)NC(=O)[C@H]([C@@H](C)O)NC(=O)[C@H](CC(=O)O)NC1=O` [[1-Nal9]ShK], the IC50 amounted to 0.367 nM.

With `CC[C@H](C)[C@@H]1NC(=O)[C@@H](NC(=O)[C@H](CO)NC(=O)[C@@H](N)CCCNC(=N)N)CSSC[C@@H](C(=O)O)NC(=O)[C@H]([C@@H](C)O)NC(=O)[C@H](CCC(=O)O)NC(=O)[C@@H]2CSSC[C@@H]3NC(=O)[C@H](CCC(N)=O)NC(=O)[C@H](Cc4ccccc4)NC(=O)[C@H](C)NC(=O)[C@H]([C@@H](C)O)NC(=O)[C@H](CSSC[C@H](NC(=O)[C@H](Cc4ccccc4)NC(=O)[C@H](CO)NC(=O)[C@H](CC(C)C)NC(=O)[C@H](CCCNC(=N)N)NC(=O)[C@H](Cc4ccc(O)cc4)NC(=O)[C@H](CCCCN)NC(=O)[C@H](CCSC)NC(=O)[C@H](CO)NC(=O)[C@H](Cc4c[nH]cn4)NC(=O)[C@H](CCCCN)NC3=O)C(=O)N[C@@H](CCCNC(=N)N)C(=O)N[C@@H](CCCCN)C(=O)N[C@@H]([C@@H](C)O)C(=O)N2)NC(=O)[C@H](CCCNC(=N)N)NC(=O)[C@H](CO)NC(=O)[C@H](CCCCN)NC(=O)[C@@H]2CCCN2C(=O)[C@H]([C@@H](C)CC)NC(=O)[C@H]([C@@H](C)O)NC(=O)[C@H](CC(=O)O)NC1=O` [[Glu33]ShK], the IC50 was 0.054 nM.
